This note sets out measurements from PMC8083960, “Kanamycin-Mediated Conformational Dynamics of Escherichia coli Outer Membrane Protein TolC” (Frontiers in Molecular Biosciences, 2021).

This experiment deals with T1, TolC (Escherichia coli, UniProt P02930).
T1 construct: ~54 kDa by SDS-PAGE and MALDI; crystal structure cited as trimer, 471 residues per monomer
The experiment can be described thus: isothermal titration calorimetry. The class given is binding. From the text: isothermal titration calorimetry on TolC

T1 sequence (P02930 23-493): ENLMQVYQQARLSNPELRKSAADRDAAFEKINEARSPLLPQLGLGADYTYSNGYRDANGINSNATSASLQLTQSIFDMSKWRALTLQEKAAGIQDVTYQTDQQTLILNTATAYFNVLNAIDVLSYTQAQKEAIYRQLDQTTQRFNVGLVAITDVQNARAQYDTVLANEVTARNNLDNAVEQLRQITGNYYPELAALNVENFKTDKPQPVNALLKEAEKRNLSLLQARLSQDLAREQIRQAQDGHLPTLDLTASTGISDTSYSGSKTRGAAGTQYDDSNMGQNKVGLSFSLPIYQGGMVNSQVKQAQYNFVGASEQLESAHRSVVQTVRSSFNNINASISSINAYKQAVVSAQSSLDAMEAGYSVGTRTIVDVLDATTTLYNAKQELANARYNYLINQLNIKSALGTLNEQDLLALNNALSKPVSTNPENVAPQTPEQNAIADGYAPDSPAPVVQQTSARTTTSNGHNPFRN

Take `NC[C@H]1O[C@H](O[C@H]2[C@H](O)[C@@H](O[C@H]3O[C@H](CO)[C@@H](O)[C@H](N)[C@H]3O)[C@H](N)C[C@@H]2N)[C@H](O)[C@@H](O)[C@@H]1O` [kanamycin]: the Kd (commonly the equilibrium constant for the complex coming apart) was 42.7 µM.
